Legend:
[1] = target: T1, hERG (relative to RET) (Homo sapiens, UniProt Q12809); test: patch clamp hERG assay; type: cell-based; conditions: human; read-out: selectivity for RET over hERG
T1 construct: purchased GenScript
Procedure: (§1) Pz-1 was minimally active in the patch clamp hERG assay, with an IC50 for the hERG assay of 10 μM (GenScript).

[2] = target: T2, hERG (Homo sapiens, UniProt Q12809); test: patch clamp hERG assay; type: cell-based; conditions: patch clamp (GenScript)
T2 construct: purchased GenScript
Procedure: as §1

[3] = tested on: HRAS(G12V) transformed NIH3T3 fibroblasts; test: NIH3T3 HRAS(G12V) tumors in nude mice; type: in vivo, BALB/c nu/nu mice; conditions: 1.0, 3.0 or 10 mg/kg daily, oral gavage
Excerpt: FIG. 8: Anti-tumorigenic activity of Pz-1 in nude mice implanted with RET/C634Y or HRAS(G12V) transformed NIH3T3 fibroblasts. […] Average tumor volume (±SD: standard deviations) is reported. NIH3T3 RET/C634Y (200,000 cells) or NIH3T3 HRAS/G12V (50,000 cells) were inoculated subcutaneously into dorsal portion (both sides) of 6-week-old female BALB/c nu/nu mice (n. 31 mice/cell line) (Jackson Laboratories, Bar Harbor, Me.). After 4 days, before tumors had appeared, animals were randomly assigned to receive Pz-1 (1.0, 3.0 or 10 mg/kg daily) (23 mice/cell line: 8 mice/group for 1.0 and 3.0 mg/kg daily doses and 7 mice for 10 dose mg/kg daily) or vehicle control (8 mice) by oral gavage. Tumor diameters were measured with calipers every 1-2 days. Tumor volumes (V) were calculated by the rotational ellipsoid formula and reported as average volumes±standard deviations. […]
TT cells (7.5×10^6/mouse) were inoculated subcutaneously into dorsal portions (both sides) of 39 SCID mice (Jackson Laboratories, Bar Harbor, Me.). […] Tumor diameters were measured with callipers every week. Tumor volumes (V) were calculated by the rotational ellipsoid formula: V=A×B^2/2 (A=axial diameter; B=rotational diameter) and reported as average volumes±standard deviations. […] Anti-tumorigenic activity of Pz-1 was also assessed in nude mice implanted with RET/C634Y or HRAS(G12V) transformed NIH3T3 fibroblasts. […]

[4] = tested on: TT cells (MTC, RET/C634W); test: Growth curve proliferation assay, TT cells; type: cell-based; conditions: Homo sapiens, last day of growth curves
Procedure: FIG. 5: Effects exerted by indicated concentrations of Pz-1 or vehicle (NT: not treated) on proliferation of TT (human MTC cell line expressing RET/C634W), Lc-2/ad (human NSCLC expressing CCDC6-RET) and Nthy-ori-3-1 (thyroid non-transformed) cell lines. Data are the mean±SD (Standard Deviation) of one experiment performed in triplicate. Bottom, right) Growth inhibition IC50 of Pz-1 for the different cell lines: 95% CI (confidence intervals) are indicated in brackets. Cells were seeded in triplicate in 60-mm dishes and kept in 5% (Nthy-ori-3-1) or 10% (TT and Lc-2/ad) fetal calf serum. The day after plating, different concentrations of Pz-1 or vehicle were added to the medium and changed every 2-3 days. Cells were counted every 2-3 days and cell numbers were reported±SD (Standard Deviation). IC50 doses (with Confidence Intervals) were calculated through a curve fitting analysis from the last day of growth curves using the PRIZM software program (Graphpad Software Inc).
Nthy-ory-3-1 and TTcells were seeded in 60-mm dishes. […] Cells were counted every 2-3 days. […] Parental and RET/PTC-expressing Ba/F3 were kept in 10% fetal calf serum in 6-multi wells and counted every day for 4 consecutive days, changing media every 2 days. […] IC50 doses were calculated through a curve fitting analysis from the last day of growth curves using the PRISM software program (Graphpad Software Inc). […]

T1 sequence (Q12809 whole entry): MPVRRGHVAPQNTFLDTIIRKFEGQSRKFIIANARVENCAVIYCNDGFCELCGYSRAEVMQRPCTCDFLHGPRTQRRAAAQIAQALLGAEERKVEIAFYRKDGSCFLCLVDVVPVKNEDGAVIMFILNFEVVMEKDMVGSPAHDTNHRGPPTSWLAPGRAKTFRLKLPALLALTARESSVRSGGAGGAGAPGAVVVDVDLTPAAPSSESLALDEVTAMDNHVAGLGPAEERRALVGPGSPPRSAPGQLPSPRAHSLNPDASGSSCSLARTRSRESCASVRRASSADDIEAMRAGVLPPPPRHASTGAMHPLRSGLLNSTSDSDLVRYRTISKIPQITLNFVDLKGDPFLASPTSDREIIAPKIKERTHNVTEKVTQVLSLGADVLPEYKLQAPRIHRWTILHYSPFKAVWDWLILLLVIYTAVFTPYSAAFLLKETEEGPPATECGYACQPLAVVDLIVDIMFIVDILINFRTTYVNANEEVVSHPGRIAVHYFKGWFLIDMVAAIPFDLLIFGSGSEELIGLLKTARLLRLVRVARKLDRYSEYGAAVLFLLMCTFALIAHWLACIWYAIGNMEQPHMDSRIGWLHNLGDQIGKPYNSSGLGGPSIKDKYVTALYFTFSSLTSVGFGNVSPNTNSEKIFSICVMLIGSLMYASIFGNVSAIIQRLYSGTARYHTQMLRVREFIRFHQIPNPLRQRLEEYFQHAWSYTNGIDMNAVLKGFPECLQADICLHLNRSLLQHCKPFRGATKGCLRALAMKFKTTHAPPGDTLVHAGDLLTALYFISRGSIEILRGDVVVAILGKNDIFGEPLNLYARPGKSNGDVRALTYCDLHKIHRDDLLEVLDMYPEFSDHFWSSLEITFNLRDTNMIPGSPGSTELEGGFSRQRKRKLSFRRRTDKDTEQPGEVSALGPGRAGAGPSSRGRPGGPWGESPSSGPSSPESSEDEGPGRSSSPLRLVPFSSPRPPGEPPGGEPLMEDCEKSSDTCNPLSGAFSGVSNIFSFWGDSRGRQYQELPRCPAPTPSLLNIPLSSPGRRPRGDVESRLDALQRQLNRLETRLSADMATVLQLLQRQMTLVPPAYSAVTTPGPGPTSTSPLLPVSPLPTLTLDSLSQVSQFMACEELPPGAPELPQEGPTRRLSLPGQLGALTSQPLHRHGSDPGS
T2 sequence (Q12809 whole entry): as above

Structure (SMILES): Cn1cc(-c2ccc3c(c2)ncn3-c2ccc(CC(=O)Nc3cc(C(C)(C)C)on3)cc2)cn1 [Pz-1, N-(5-(tert-butyl)isoxazol-3-yl)-2-(4-(5-(1-methyl-1H-pyrazol-4-yl)-1H-benzo[d]imidazol-1-yl)phenyl)acetamide]
- selectivity ratio [1]: 10000
- IC50 [2]: 10 µM
- formation of tumors driven by the HRAS oncogene [3]: only reduced, but did not abrogate
- IC50 [4]: 1.86 nM
